“Also recorded” adds a separate entry of the source.
Columns and labels:
Format in all cases: cell-based, human
[1] = system: GCLC (glutamate-cysteinyl ligase); test: Real time PCR of glutamate-cysteinyl ligase (GCLC) in FT-skin model; conditions: 1% Biomass or GABA 1 mm dose, from 8 h
From the text: (§1) 2) The ‘full thickness skin model’ (FT) (Phenion GmbH & Co., Frankfurt am Main, Germany) is a multi-layer human skin model consisting of keratinocytes and fibroblasts stemming from the same donor. After a culture period of five weeks, the ‘full thickness’ was fully developed and comprised epidermis, basal membrane and derma. The model was characterized with respect to the expression of fundamental markers of differentiation at the epidermis level (cytokeratin 10, philagrin, transglutaminase and involucrin), at the derma-epidermis junctions (laminin and collagen IV) and at dermal level (elastin fibronectin). The diameter of the model FT is of 1.3 cm.
(§2) In this study the following genes were employed:
(§3) The technique employs Taqman probes for detecting the fluorescent signal and it is very sensitive, consisting in the amplification and quantification of a specific sequence of nucleic acids. The detection of the PCR product occurs in real time. The quantification of DNA, cDNA or RNA is carried out by determining the cycle in which he PCR product can be detected for the first time, thus not at the moment when the reaction has become saturated. The quantification of the product occurs through the detection of fluorescence measured in each cycle; the strength of the signal is directly proportional to the amount of the amplified product. […]
(§4) Each biological sample is evaluated in triple tests. […]

[2] = system: GSS (glutatione synthetase); test: Real time PCR of glutatione synthetase (GSS) in FT-skin model; conditions: 24 hours, expression values very low and meaningless
From the text: as §1, §2, §3, §4

[3] = system: hyaluronate synthetase (HAS1); test: Real time PCR of hyaluronate synthetase (HAS1) in FT-skin model
From the text: as §1, §2, §3, §4

philagrin (FLG) = test: Real time PCR of philagrin (FLG) in FT-skin model
From the text: as §1, §2, §3, §4

involucrin (IVL) = test: Real time PCR of involucrin (IVL) in FT-skin model; conditions: 8, 24, 48 and 72 hours, repeated application for 3 days
From the text: as §1, §2, §3, §4

GCLC gene expression (RT-PCR) [1]: No gene modulation
GSS gene modulation (RT-PCR) [2]: just as a tendency
hyaluronate synthetase (HAS) expression with respect to control sample ([3]; 24 hours, 1% Biomass or GABA 1 mm dose, high standard deviation): increased
hyaluronate synthetase (HAS) expression ([3]; 48 hours, GABA 1 mm dose): increased
Structure (SMILES): NCCCC(=O)O [GABA, gamma-aminobutyric acid]
philagrin gene over-expression (philagrin (FLG); 24 hours): evident
philagrin gene over-expression (philagrin (FLG); 72 hours (repeated application for 3 days)): significative increase
involucrin gene modulation (involucrin (IVL)): no significative modulation; also recorded: unmodulated

— US20100254948A1, “PROCESS FOR THE PREPARATION OF GAMMA-AMINO BUTYRIC ACID (GABA) BY THE USE OF LACTIC ACID BACTERIA (LAB) ON AGRO-AND FOOD-INDUSTRY SURPLUS” (Giuliani S.p.A, priority 2007, published 2010)
